Values quoted from earlier work in article PMC3527451, “A Pilot Randomized, Placebo Controlled, Double Blind Phase I Trial of the Novel SIRT1 Activator SRT2104 in Elderly Volunteers” (PLoS ONE, 2012).

Tested on: DIO mice and ob/ob mice
Conditions: e.g. DIO and Lep ob/ob obese mice; cited from earlier work

For Oc1ccc(/C=C/c2cc(O)cc(O)c2)cc1 [resveratrol, reference compound], the “cholesterol, LDL and triglycerides in preclinical models of dyslipidemia, diabetes and obesity” value is given as “lower cholesterol, LDL and triglycerides”.
